Results reported in patent US6348445B1, “Biologically active peptides with reduced toxicity in animals and a method for preparing same” (priority 1992, dated 2002).
Values after ≈ are worked out from the molar mass of the structure shown. Where a SMILES comes first, the peptide text is derived from it. The star is where a group is joined. Octanoyl = CCCCCCCC(=O)*

What was measured:
[1] = maximal tolerated dose, single intravenous administration of Compound 1324; assay type: in vivo, mice; conditions: for Number of Survivors on Day 0: 2 or 6.5 hrs post-administration
Method: Mice received single intravenous administrations of Compound 1324, the methane sulfonate analogue of Compound 843, and were monitored for survival for at least 4 days. There were no deaths at a dose of less than or equal to 180 mg/kg.
To determine the maximal tolerated dose (MTD) and estimate the lethal dose 50% (LD50) of Compound 1324 sodium when administered intravenously in a single-bolus in mice.
Animals: On arrival and study initiation, three groups Thirty-seven male CD-1 mice (Charles River Lab)had average body weights of 39, 28 and 28 gm, respectively.
Solution Prep: A 120 mg/ml of active Compound 1324 (active moiety corrected for) was made in saline. All concentrations from 5 mg/ml to 80 mg/ml were dilutions of the 120 mg/ml solution with saline. The highest concentration used in the intravenous administration was 20 mg/ml.
Mice were randomly assigned to one of ten groups (4 mice per group, except the highest dose group which only had one mouse). Mice were administered intravenously 10 ml/kg of either 0 (saline), 5, 6, 7, 8, 14, 16, 18, or 20 mg/ml solution for doses of […]. One mouse received 14.1 ml/kg of a 20 mg/ml solution for a dose of 282 mg/kg. Mice were monitored for survival for at least four days post-administration.

[2] = pharmacokinetics, single intravenous dose, plasma bioassay (E. coli zone clearing); assay type: in vivo, mice; conditions: 140 mg/kg i.v.
Method: A pharmacokinetics study of MSI-1324 in mice using a single dose administration was conducted. Thirty-two CD-1 male mice were injected with MSI-1324 sodium with a dose of 140 mg/kg (corrected for peptide content). Terminal blood samples were obtained from 2 to 4 mice at timepoints of 0 (prior to dosing), 5, 15, 30, 60 min, 2, 4, 6, 24, and 48 hours post-dose. Plasma concentrations were estimated by bioassay.
40 animals CD-1®BR mice (Charles River Lab) with a mean body weight of 25.6 gms at study initiation were used.
A 14 mg/mL solution of MSI-1324 was made in saline (0.9% sodium chloride injectable USP, Baxter) corrected for peptide content.
Thirty-six mice were intravenously administered a single bolus of MSI-1324 at a dose of 140 mg/kg corrected for peptide content using an injection volume of 10 mL/kg of the 14 mg/mL solution. Four mice were not injected and supplied pre-dosing blood samples. Terminal blood samples were obtained via cardiac puncture in halothane-anesthetized mice at timepoints of 0 (prior to dosing), 5, 15, 30, 60 min, 2, 4, 6, 24, and 48 hours post-dose. Two to four mice were terminally bled at each timepoint. The blood samples were centrifuged and plasma transferred into separate tubes for bioassay analysis. The bioassay used was antibacterial zone clearing (disk diffusion) on Escherichia coli lawns.

[3] = tested on: P. aeruginosa strain ATCC 27853; assay type: cell-based; conditions: ATCC 27853
How it was run: (§1)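 Broth microdilution per NCCLS M7-T2: final peptide levels 0.25 to 256 μg/ml (twofold steps), inoculum 1-5×10^5 CFUs/ml in full-strength Mueller Hinton broth. MIC read as lowest concentration leaving the well clear after 16-20 hours at 37° C.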

[4] = tested on: E. coli ATCC strain 25922; assay: Minimal Inhibitory Concentration, microtiter broth dilution; assay type: cell-based; conditions: ATCC strain 25922
How it was run: as §1

C. albicans = assay type: cell-based
How it was run: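 Broth microdilution: mid-log organisms at 1-5×10^5 CFU/ml in Mueller Hinton broth exposed to 2-fold peptide series (0.25–256 μg/ml final). After 16-20 h at 37° C, MIC read as the lowest concentration leaving the well clear.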

S. mutans = assay: anaerobic anti-microbial susceptibility test (MIC); assay type: cell-based; set-up: unit not given here; conditions: 24-48 hours
A. viscosus = assay: anaerobic anti-microbial susceptibility test (MIC); assay type: cell-based; conditions: 24-48 hours
S. aureus ATCC 29213 = assay type: cell-based; conditions: ATCC 29213
C. albicans ATCC 90028 = assay type: cell-based; conditions: ATCC 90028
Method: The procedure for the anti-bacterial assay is based upon the guidelines of the National Committee for Clinical Laboratory Standards, Document M7-T2, Volume 8, No. 8, 1988, which document is entirely incorporated herein by reference.
Stock solutions of peptides, with and without the appropriate substitutions, were prepared at a concentration of 512 μg/ml in sterile deionized distilled water and stored at −70° C.
The stock peptide solution was diluted in serial dilutions (1:2) down the wells of a microtiter plate so that the final concentrations of peptides in the wells were 0.25, 0.50, 1, 2, 4, 8, 16, 32, 64, 128 and 256 μg/ml. 1-5×10^5 CFUs/ml of either S. aureus ATCC 25923, E. coli ATCC 25922, P. aeruginosa ATCC 27853, or C. albicans, were added to the wells in full strength Mueller Hinton broth (BBL 11443) from a mid-log culture. The inoculum was standardized spectrophotometrically at 600 nm and was verified by colony counts. The plates were incubated for 16-20 hours at 37° C., and the minimal inhibitory concentration (MIC) for each peptide was determined. Minimal inhibitory concentration is defined as the lowest concentration of peptide which produces a clear well in the microtiter plate. The minimal inhibitory concentration of each of the peptides with and/or without the appropriate substitutions is given in Table I below.
(§2) The in vitro anti-microbial activities of the methane sulfonate derivatives were determined according to the methods described in Examples 1 and 2. The activities against ATCC strains of S. aureus, E. coli, P. aeruginosa, and C. albicans, and the hemolysis of red blood cells were compared to the parent compound (Table IV). The activities for Compound 843 (Oct-SEQ ID NO:143) methane sulfonate against clinical strains of P. aeruginosa isolated from cystic fibrosis patients were compared to the parent compound (Table V). The activity for Compound 469 (Oct-SEQ ID NO:27) methane sulfonate against P. gingivalis was compared to the parent compound (Table VI).

red blood cells = assay: hemolysis of red blood cells; assay type: cell-based
Method: as §2

CCCCCCCC(=O)N[C@@H](CCCNCS(=O)(=O)O)C(=O)N[C@@H](CCCNCS(=O)(=O)O)C(=O)N[C@@H](CC(C)C)C(=O)N[C@@H](CC(C)C)C(=O)N[C@@H](CCCNCS(=O)(=O)O)C(=O)N[C@@H](CCCNCS(=O)(=O)O)C(=O)N[C@@H](CC(C)C)C(=O)N[C@@H](CCCNCS(=O)(=O)O)C(=O)N[C@@H](CCCNCS(=O)(=O)O)C(=O)N[C@@H](CC(C)C)C(N)=O [Compound 1324]
mice that survived ([1]; 200 mg/kg single intravenous): Three of four
Number of Survivors on Day 1 ([1]; IV 50 mg/kg, 4 mice): 4
Number of Survivors on Day 2 ([1]; IV 50 mg/kg, 4 mice): 4
Number of Survivors on Day 3 ([1]; IV 50 mg/kg, 4 mice): 4
Number of Survivors on Day 4 ([1]; IV 50 mg/kg, 4 mice): 4
Number of Survivors on Day 5 ([1]; IV 50 mg/kg, 4 mice): 4
Number of Survivors on Day 0 ([1]; IV 50 mg/kg, 4 mice): 4
Number of Survivors on Day 1 ([1]; IV 60 mg/kg, 4 mice): 4
Number of Survivors on Day 2 ([1]; IV 60 mg/kg, 4 mice): 4
Number of Survivors on Day 3 ([1]; IV 60 mg/kg, 4 mice): 4
Number of Survivors on Day 4 ([1]; IV 60 mg/kg, 4 mice): 4
Number of Survivors on Day 5 ([1]; IV 60 mg/kg, 4 mice): 4
Number of Survivors on Day 0 ([1]; IV 60 mg/kg, 4 mice): 4
Number of Survivors on Day 1 ([1]; IV 70 mg/kg, 4 mice): 4
Number of Survivors on Day 2 ([1]; IV 70 mg/kg, 4 mice): 4
Number of Survivors on Day 3 ([1]; IV 70 mg/kg, 4 mice): 4
Number of Survivors on Day 4 ([1]; IV 70 mg/kg, 4 mice): 4
Number of Survivors on Day 5 ([1]; IV 70 mg/kg, 4 mice): 4
Number of Survivors on Day 0 ([1]; IV 70 mg/kg, 4 mice): 4
Number of Survivors on Day 1 ([1]; IV 80 mg/kg, 4 mice): 4
Number of Survivors on Day 2 ([1]; IV 80 mg/kg, 4 mice): 4
Number of Survivors on Day 3 ([1]; IV 80 mg/kg, 4 mice): 4
Number of Survivors on Day 4 ([1]; IV 80 mg/kg, 4 mice): 4
Number of Survivors on Day 5 ([1]; IV 80 mg/kg, 4 mice): 4
Number of Survivors on Day 0 ([1]; IV 80 mg/kg, 4 mice): 4
Number of Survivors on Day 1 ([1]; IV 140 mg/kg, 4 mice): 4
Number of Survivors on Day 2 ([1]; IV 140 mg/kg, 4 mice): 4
Number of Survivors on Day 3 ([1]; IV 140 mg/kg, 4 mice): 4
Number of Survivors on Day 4 ([1]; IV 140 mg/kg, 4 mice): 4
Number of Survivors on Day 5 ([1]; IV 140 mg/kg, 4 mice): 4
Number of Survivors on Day 7 ([1]; IV 140 mg/kg, 4 mice): 4
Number of Survivors on Day 0 ([1]; IV 140 mg/kg, 4 mice): 4
Number of Survivors on Day 1 ([1]; IV 160 mg/kg, 4 mice): 4
Number of Survivors on Day 2 ([1]; IV 160 mg/kg, 4 mice): 4
Number of Survivors on Day 3 ([1]; IV 160 mg/kg, 4 mice): 4
Number of Survivors on Day 4 ([1]; IV 160 mg/kg, 4 mice): 4
Number of Survivors on Day 5 ([1]; IV 160 mg/kg, 4 mice): 4
Number of Survivors on Day 7 ([1]; IV 160 mg/kg, 4 mice): 4
Number of Survivors on Day 0 ([1]; IV 160 mg/kg, 4 mice): 4
Number of Survivors on Day 1 ([1]; IV 180 mg/kg, 4 mice): 4
Number of Survivors on Day 2 ([1]; IV 180 mg/kg, 4 mice): 4
Number of Survivors on Day 3 ([1]; IV 180 mg/kg, 4 mice): 4
Number of Survivors on Day 4 ([1]; IV 180 mg/kg, 4 mice): 4
Number of Survivors on Day 5 ([1]; IV 180 mg/kg, 4 mice): 4
Number of Survivors on Day 7 ([1]; IV 180 mg/kg, 4 mice): 4
Number of Survivors on Day 0 ([1]; IV 180 mg/kg, 4 mice): 4
Number of Survivors on Day 2 ([1]; IV 200 mg/kg, 4 mice): 3
Number of Survivors on Day 3 ([1]; IV 200 mg/kg, 4 mice): 3
Number of Survivors on Day 4 ([1]; IV 200 mg/kg, 4 mice): 3
Number of Survivors on Day 2 ([1]; IV 282 mg/kg, 1 mouse): 0
Number of Survivors on Day 3 ([1]; IV 282 mg/kg, 1 mouse): 0
Number of Survivors on Day 4 ([1]; IV 282 mg/kg, 1 mouse): 0
LD50 ([1]; mouse, in vivo, single intravenous bolus, CD-1 mice): 200 to 282 mg/kg
peak plasma concentration ([2]; estimated by bioassay): approximately 600 ug/mL
time of peak concentration post-dose ([2]; first sampling timepoint): 5 min
plasma concentration at 60 min post-dose ([2]; limit of detection approximately 150 ug/mL, listed as MSI-1324): below detection limits of the assay
level at 1 h ([2]; male, CD-1, mouse, plasma, iv, limit of detection approximately 150 ug/mL, read-out: plasma concentration at 60 min post-dose): < 150 µg/mL

CCCCCCCC(=O)N[C@@H](CCCCN)C(=O)N[C@H](C(=O)N[C@@H](C)C(=O)NCC(=O)N[C@@H](CCCCN)C(=O)N[C@H](C(=O)N[C@@H](C)C(=O)N[C@@H](CCCCN)C(=O)N[C@H](C(=O)N[C@@H](C)C(=O)NCC(=O)N[C@@H](CCCCN)C(=O)N[C@H](C(=O)N[C@@H](C)C(=O)N[C@@H](CCCCN)C(=O)N[C@H](C(=O)N[C@@H](C)C(=O)NCC(=O)N[C@@H](CCCCN)C(=O)N[C@H](C(=O)N[C@@H](C)C(N)=O)[C@@H](C)CC)[C@@H](C)CC)[C@@H](C)CC)[C@@H](C)CC)[C@@H](C)CC)[C@@H](C)CC [Oct-(SEQ ID NO: 27)-NH2, (Oct-KIAGKIA)3-NH2)] (Octanoyl-KIAGKIAKIAGKIAKIAGKIA-NH2)
MIC P. aeruginosa ATCC 27853 [3]: 4 to 8 µg/mL
Minimal Inhibitory Concentration P [3]: 4 µg/mL
MIC E. coli ATCC 25922 [4]: 4 µg/mL (≈ 1.83 µM)
Minimal Inhibitory Concentration E [4]: 2 µg/mL
Minimal Inhibitory Concentration CA (C. albicans): 16 µg/mL
MIC S. mutans (S. mutans): 16
MIC A. viscos (A. viscosus): 16 μl/ml
MIC S. aureus ATCC 29213 (S. aureus ATCC 29213): 2 µg/mL (≈ 0.914 µM)
MIC C. albicans ATCC 90028 (C. albicans ATCC 90028): 64 µg/mL (≈ 29.2 µM)
% Hemolysis (500 μg/ml) (red blood cells): 100%
MIC P. gingivalis ATTC 33277 (P. gingivalis): 4 µg/mL (≈ 1.83 µM)
MIC P. gingivalis (strain) 9-14K-1 (P. gingivalis; anaerobic, 24-48 hours): 4 μl/ml
MIC P. gingivalis (strain) 381 (P. gingivalis; anaerobic, 24-48 hours): 16 μl/ml
MIC P. gingivalis (strain) 450 (P. gingivalis; anaerobic, 24-48 hours): 16 μl/ml
MIC P. gingivalis (strain) A7A1-28 (P. gingivalis; anaerobic, 24-48 hours): 4 μl/ml
MIC P. gingivalis (strain) FAY-19M-1 (P. gingivalis; anaerobic, 24-48 hours): 4 μl/ml
